Experimental data taken from the NIST ThermoML archive (doi:10.1016/j.jct.2011.02.008).
± gives the expanded uncertainty stated by the source.

Assay: xn = mol fraction of the nth substance listed
Settings: Liquid, Vibrating tube method

COC(=O)c1ccccc1 [methyl benzoate] + C1CCCCC1
mass density [kg/m3]
Settings	x1 = 0.0985	x1 = 0.1963	x1 = 0.2939	x1 = 0.3942	x1 = 0.4955	x1 = 0.596	x1 = 0.6975	x1 = 0.7993	x1 = 0.8982
318.15 K, 30000 kPa	–	–	873.9 ± 2.4	905.1 ± 2.4	936.2 ± 2.4	967.6 ± 2.4	997.8 ± 2.4	1026.6 ± 2.4	1054.7 ± 2.4
318.15 K, 35000 kPa	815.3 ± 2.4	846.3 ± 2.4	877.5 ± 2.4	908.6 ± 2.4	939.6 ± 2.4	971 ± 2.4	1001 ± 2.4	1029.7 ± 2.4	1057.8 ± 2.4
318.15 K, 40000 kPa	818.8 ± 2.4	849.9 ± 2.4	880.9 ± 2.4	912 ± 2.4	942.9 ± 2.4	974.2 ± 2.4	1004.1 ± 2.4	1032.7 ± 2.4	1060.7 ± 2.4
318.15 K, 45000 kPa	822.2 ± 2.4	853.2 ± 2.4	884.3 ± 2.4	915.2 ± 2.4	946.1 ± 2.4	977.3 ± 2.4	1007.1 ± 2.4	1035.7 ± 2.4	1063.6 ± 2.4
318.15 K, 50000 kPa	825.5 ± 2.4	856.5 ± 2.4	887.5 ± 2.4	918.4 ± 2.4	949.2 ± 2.4	980.3 ± 2.4	1010.1 ± 2.4	1038.6 ± 2.4	1066.5 ± 2.4
318.15 K, 55000 kPa	828.7 ± 2.4	859.7 ± 2.4	890.6 ± 2.4	921.5 ± 2.4	952.3 ± 2.4	983.3 ± 2.4	1013 ± 2.4	1041.5 ± 2.4	1069.3 ± 2.4
318.15 K, 60000 kPa	831.6 ± 2.4	862.5 ± 2.4	893.4 ± 2.4	924.3 ± 2.4	955.1 ± 2.4	986 ± 2.4	1015.7 ± 2.4	1044.1 ± 2.4	1071.8 ± 2.4
328.15 K, 100 kPa	776 ± 2.4	807.7 ± 2.4	839.6 ± 2.4	871.6 ± 2.4	903.6 ± 2.4	935.6 ± 2.4	966.7 ± 2.4	996.3 ± 2.4	1025.1 ± 2.4
328.15 K, 1000 kPa	777 ± 2.4	808.7 ± 2.4	840.5 ± 2.4	872.5 ± 2.4	904.4 ± 2.4	936.4 ± 2.4	967.4 ± 2.4	997 ± 2.4	1025.8 ± 2.4
328.15 K, 5000 kPa	781.2 ± 2.4	812.7 ± 2.4	844.5 ± 2.4	876.3 ± 2.4	908.1 ± 2.4	939.9 ± 2.4	970.6 ± 2.4	1000.2 ± 2.4	1028.9 ± 2.4
328.15 K, 10000 kPa	786.2 ± 2.4	817.6 ± 2.4	849.2 ± 2.4	880.4 ± 2.4	912.3 ± 2.4	944.1 ± 2.4	974.8 ± 2.4	1004 ± 2.4	1032.6 ± 2.4
328.15 K, 15000 kPa	790.7 ± 2.4	822.1 ± 2.4	853.6 ± 2.4	885.1 ± 2.4	916.5 ± 2.4	948.1 ± 2.4	978.6 ± 2.4	1007.7 ± 2.4	1036.2 ± 2.4
328.15 K, 20000 kPa	795.2 ± 2.4	826.5 ± 2.4	857.8 ± 2.4	889.2 ± 2.4	920.5 ± 2.4	951.9 ± 2.4	982.3 ± 2.4	1011.3 ± 2.4	1039.7 ± 2.4
328.15 K, 25000 kPa	799.4 ± 2.4	830.6 ± 2.4	861.8 ± 2.4	893.1 ± 2.4	924.3 ± 2.4	955.6 ± 2.4	985.9 ± 2.4	1014.7 ± 2.4	1043 ± 2.4
328.15 K, 30000 kPa	803.4 ± 2.4	834.5 ± 2.4	865.7 ± 2.4	896.9 ± 2.4	928 ± 2.4	959.2 ± 2.4	989.4 ± 2.4	1018.1 ± 2.4	1046.3 ± 2.4
328.15 K, 35000 kPa	807.3 ± 2.4	838.3 ± 2.4	869.4 ± 2.4	900.5 ± 2.4	931.5 ± 2.4	962.7 ± 2.4	992.7 ± 2.4	1021.4 ± 2.4	1049.4 ± 2.4
328.15 K, 40000 kPa	811 ± 2.4	842 ± 2.4	873 ± 2.4	904.1 ± 2.4	935 ± 2.4	966 ± 2.4	996 ± 2.4	1024.5 ± 2.4	1052.5 ± 2.4
328.15 K, 45000 kPa	814.6 ± 2.4	845.5 ± 2.4	876.5 ± 2.4	907.5 ± 2.4	938.3 ± 2.4	969.3 ± 2.4	999.1 ± 2.4	1027.6 ± 2.4	1055.5 ± 2.4
328.15 K, 50000 kPa	818 ± 2.4	848.9 ± 2.4	879.8 ± 2.4	910.8 ± 2.4	941.5 ± 2.4	972.5 ± 2.4	1002.2 ± 2.4	1030.7 ± 2.4	1058.5 ± 2.4
328.15 K, 55000 kPa	821.3 ± 2.4	852.2 ± 2.4	883.1 ± 2.4	914 ± 2.4	944.7 ± 2.4	975.6 ± 2.4	1005.3 ± 2.4	1033.6 ± 2.4	1061.4 ± 2.4
328.15 K, 60000 kPa	824.3 ± 2.4	855.5 ± 2.4	886.1 ± 2.4	916.9 ± 2.4	947.6 ± 2.4	978.3 ± 2.4	1008 ± 2.4	1036.3 ± 2.4	1064.2 ± 2.4
338.15 K, 100 kPa	766.2 ± 2.4	798 ± 2.4	829.9 ± 2.4	861.9 ± 2.4	893.9 ± 2.4	926 ± 2.4	957 ± 2.4	986.6 ± 2.4	1015.6 ± 2.4
338.15 K, 1000 kPa	767.2 ± 2.4	799 ± 2.4	830.9 ± 2.4	862.8 ± 2.4	894.7 ± 2.4	926.8 ± 2.4	957.8 ± 2.4	987.4 ± 2.4	1016.3 ± 2.4
338.15 K, 5000 kPa	771.8 ± 2.4	803.4 ± 2.4	835.1 ± 2.4	866.9 ± 2.4	898.7 ± 2.4	930.5 ± 2.4	961.3 ± 2.4	990.8 ± 2.4	1019.6 ± 2.4
338.15 K, 10000 kPa	777 ± 2.4	808.5 ± 2.4	840 ± 2.4	871.6 ± 2.4	903.2 ± 2.4	934.9 ± 2.4	965.6 ± 2.4	994.9 ± 2.4	1023.5 ± 2.4
338.15 K, 15000 kPa	782 ± 2.4	813.3 ± 2.4	844.7 ± 2.4	876.2 ± 2.4	907.6 ± 2.4	939.2 ± 2.4	969.6 ± 2.4	998.8 ± 2.4	1027.2 ± 2.4
338.15 K, 20000 kPa	786.7 ± 2.4	817.9 ± 2.4	849.2 ± 2.4	880.5 ± 2.4	911.8 ± 2.4	943.2 ± 2.4	973.5 ± 2.4	1002.5 ± 2.4	1030.8 ± 2.4
338.15 K, 25000 kPa	791.1 ± 2.4	822.3 ± 2.4	853.4 ± 2.4	884.6 ± 2.4	915.8 ± 2.4	946.9 ± 2.4	977.3 ± 2.4	1006.2 ± 2.4	1034.4 ± 2.4
338.15 K, 30000 kPa	795.4 ± 2.4	826.4 ± 2.4	857.5 ± 2.4	888.6 ± 2.4	919.6 ± 2.4	950.8 ± 2.4	980.9 ± 2.4	1009.7 ± 2.4	1037.8 ± 2.4
338.15 K, 35000 kPa	799.4 ± 2.4	830.4 ± 2.4	861.4 ± 2.4	892.4 ± 2.4	923.4 ± 2.4	954.5 ± 2.4	984.4 ± 2.4	1013.1 ± 2.4	1040.9 ± 2.4
338.15 K, 40000 kPa	803.3 ± 2.4	834.2 ± 2.4	865.2 ± 2.4	896.1 ± 2.4	927 ± 2.4	958 ± 2.4	987.8 ± 2.4	1016.4 ± 2.4	1044.3 ± 2.4
338.15 K, 45000 kPa	807 ± 2.4	837.9 ± 2.4	868.8 ± 2.4	899.6 ± 2.4	930.4 ± 2.4	–	–	–	–
